Test [1] addresses HCV NS3/4A protease complex (Hepatitis C virus genotype 1a, UniProt P27958, C1454S/C1711G). The experiment in a line: Recombinant HCV NS3/4A protease complex FRET peptide assay (strain not stated). It counts as biochemical. The conditions noted are these: IC50, NS3/4A protease enzyme assay, strain not stated; activity ranges.
Test [2] has as its system HCV replicon in Huh7 cells. The test is described as follows: HCV replicon cell-based assay. Also noted: species or system HCV strain 1B. The following applies: Hepatitis C virus, Huh-7, 96 h. The method, boiled down:
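Genotype 1b subgenomic replicon Huh7 cells exposed to compound 4 days at 37° C in 4% FCS, 0.5% DMSO medium. EC50 from TaqMan RT-PCR of HCV RNA, normalized to total RNA by RiboGreen; CC50 from alamar Blue fluorescence after 4 h.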

[3] abbreviates: HCV replicon, Huh7 cells, 4 days, activity ranges, read-out: EC50.

The pIC50 is the negative decadic logarithm of the IC50, by convention in mol/L. Broadly, the pEC50 is −log10 of the EC50, conventionally taken in molar units.

pEC50, pIC50: −log10 of the molar value. Read-outs that look alike come from different tables or passages of the source.

HCV NS3/4A protease complex, sequence (P27958 1027-1711, stated change not applied): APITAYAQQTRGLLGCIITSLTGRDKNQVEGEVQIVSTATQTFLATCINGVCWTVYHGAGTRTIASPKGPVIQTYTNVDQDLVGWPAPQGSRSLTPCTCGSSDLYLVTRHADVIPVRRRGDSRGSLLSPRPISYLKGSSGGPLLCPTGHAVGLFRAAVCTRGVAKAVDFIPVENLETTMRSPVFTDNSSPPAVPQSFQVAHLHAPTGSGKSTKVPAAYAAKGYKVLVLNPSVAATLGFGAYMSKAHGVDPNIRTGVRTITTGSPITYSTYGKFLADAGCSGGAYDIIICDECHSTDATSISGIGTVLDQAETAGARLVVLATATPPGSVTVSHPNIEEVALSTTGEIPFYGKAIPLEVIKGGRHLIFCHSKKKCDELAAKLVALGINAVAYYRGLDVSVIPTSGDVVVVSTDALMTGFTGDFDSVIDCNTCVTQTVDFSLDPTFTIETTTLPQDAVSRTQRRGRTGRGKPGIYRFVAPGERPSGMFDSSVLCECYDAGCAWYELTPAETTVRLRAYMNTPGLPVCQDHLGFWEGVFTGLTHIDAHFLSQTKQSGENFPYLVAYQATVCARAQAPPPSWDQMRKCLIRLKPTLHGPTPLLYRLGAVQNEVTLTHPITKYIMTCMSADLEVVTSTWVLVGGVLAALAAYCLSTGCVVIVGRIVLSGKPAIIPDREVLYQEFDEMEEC
HCV NS3/4A protease complex, sequence (P27958 1027-1711, stated change not applied): as above

As for `C=C[C@@H]1C[C@]1(NC(=O)C1CC(Oc2cc(-c3ccccc3)nc3cc(OC)ccc23)CN1C(=O)[C@@H](NC(=O)OCc1ccccc1)C(C)(C)C)C(=O)NS(=O)(=O)C1CC1` (stereo partly drawn) [Compound 114, {1S-[2S-(1R-cyclopropanesulfonylaminocarbonyl-2S-vinyl-cyclopropylcarbamoyl)-4R-(7-methoxy-2-phenyl-quinolin-4-yloxy)-pyrrolidine-1-carbonyl]-2,2-dimethyl-propyl}-carbamic acid benzyl ester], the pIC50 in test [1] is more than 7.30. Besides, the pEC50 in test [2] (setting [3]) is more than 7.30.
Take `C=CC1CC1(NC(=O)[C@@H]1C[C@@H](Oc2cc(-c3ccccc3)nc3cc(OC)ccc23)CN1C(=O)[C@@H](NC(=O)OC(C)(C)C)C(C)(C)C)C(=O)NS(=O)(=O)C1CC1` (some centres unmarked) [Compound 91]: the pIC50 in test [1] was more than 7.30. Besides, the pEC50 in test [2] (setting [3]) was more than 7.30.
For `C=CC1C[C@]1(NC(=O)[C@@H]1C[C@@H](Oc2cc(-c3ccccc3)nc3cc(OC)ccc23)CN1C(=O)[C@@H](NC(=O)OC(C)(C)C)C1CCCC1)C(=O)NS(=O)(=O)C1CCC1` (some centres unmarked) [Compound 72], the pIC50 in test [1] was more than 6.30. Further, the pEC50 in test [2] (setting [3]) was more than 6.30.
Regarding `C=CC1C[C@]1(NC(=O)[C@@H]1C[C@@H](Oc2cc(-c3ccccc3)nc3cc(OC)ccc23)CN1C(=O)[C@@H](NC(=O)OC(C)(C)C)C(C)(C)C)C(=O)N[S+]([O-])C(C)(C)C` (some centres unmarked) [Compound 61], the negative-log IC50 (pIC50) in test [1] was more than 6.30. Moreover, the negative logarithm of the EC50 (pEC50) in test [2] (setting [3]) was more than 5.30.
The corresponding values for `C=CC1C[C@]1(NC(=O)[C@@H]1C[C@@H](Oc2cc(-c3ccccc3)nc3cc(OC)ccc23)CN1C(=O)[C@@H](NC(=O)OC(C)(C)C)C(C)(C)C)C(=O)NS(=O)(=O)CCCC` (some centres unmarked) [Compound 23] are more than 7.30 and more than 6.30.
Consider `C=C[C@@H]1C[C@]1(NC(=O)C1C[C@@H](Oc2cc(-c3ccccc3)nc3cc(OC)ccc23)CN1C(=O)[C@@H](NC(=O)C(F)(F)F)C(C)(C)C)C(=O)NS(=O)(=O)C1CC1` (stereo partly drawn) [Compound 99, 1-[3,3-dimethyl-2S-(2,2,2-trifluoro-acetylamino)-butyryl]-4R-(7-methoxy-2-phenylquinolin-4-yloxy)pyrrolidine-2S-carboxylic acid(1R-cyclopropanesulfonylaminocarbonyl-2S-vinylcyclopropyl)amide], for which the pIC50 in test [1] was more than 7.30. The pEC50 in test [2] (setting [3]) was more than 6.30.
In the case of `C=CC1C[C@]1(NC(=O)[C@@H]1C[C@@H](Oc2cc(-c3ccccc3)nc3cc(OC)ccc23)CN1C(=O)[C@@H](NC(=O)OC(C)(C)C)C1CCCC1)C(=O)NS(=O)(=O)C1CC1` (some centres unmarked) [Compound 29], the pIC50 in test [1] was more than 7.30. Besides, the pEC50 in test [2] (setting [3]) was more than 7.30.
Regarding `C=C[C@@H]1C[C@]1(NC(=O)C1C[C@@H](Oc2cc(-c3ccccc3)nc3cc(OC)ccc23)CN1C(=O)[C@@H](NC(=O)CF)C(C)(C)C)C(=O)NS(=O)(=O)C1CC1` (stereo partly drawn) [Compound 112, 1-[2S-(2-Fluoro-acetylamino)-3,3-dimethyl-butyryl]-4R-(7-methoxy-2-phenyl-quinolin-4-yloxy)-pyrrolidine-2S-carboxylic acid (1R-cyclopropanesulfonylaminocarbonyl-2S-vinyl-cyclopropyl)-amide], the negative logarithm of the IC50 (pIC50) in test [1] was more than 7.30. In test [2], the pEC50 was more than 7.30.
As for `C=CCOC(=O)N[C@H](C(=O)N1C[C@H](Oc2cc(-c3ccccc3)nc3cc(OC)ccc23)CC1C(=O)N[C@]1(C(=O)NS(=O)(=O)C2CC2)C[C@H]1C=C)C(C)(C)C` (stereo partly drawn) [Compound 126, {1S-[2S-(1R-cyclopropanesulfonylaminocarbonyl-2S-vinyl-cyclopropylcarbamoyl)-4R-(7-methoxy-2-phenyl-quinolin-4-yloxy)-pyrrolidine-1-carbonyl]-2,2-dimethyl-propyl}-carbamic acid allyl ester], the pIC50 in test [1] was more than 7.30. Further, the pEC50 in test [2] (setting [3]) is more than 7.30.
On to `C=CC1C[C@]1(NC(=O)[C@@H]1C[C@@H](Oc2cc(-c3ccccc3)nc3cc(OC)ccc23)CN1C(=O)[C@H](CC(C)C)NC(=O)OC(C)(C)C)C(=O)NS(=O)(=O)C1CC1` (some centres unmarked) [Compound 33], for which the pIC50 in test [1] was more than 7.30. In addition, in test [2] (setting [3]), the pEC50 was more than 7.30.

The values above are taken from patent publication US6872805B2 (Bristol-Myers Squibb Company, priority 2000, dated 2005).
